Assay results as given in ChEMBL document CHEMBL1157899, “Molecular modelling, synthesis and acetylcholinesterase inhibition of ethyl 5-amino-2-methyl-6,7,8,9-tetrahydrobenzo[b][1,8]naphthyridine-3-carboxylate” (Bioorg Med Chem Lett, 2010).

Experiments:
[1] = molecular target: Acetylcholinesterase (Homo sapiens, UniProt P22303); experiment: Inhibition of human AChE
[2] = molecular target: Acetylcholinesterase (Electrophorus electricus, UniProt O42275); experiment: Inhibition of electric eel AChE
[3] = molecular target: Cholinesterase (Equus caballus, UniProt P81908); experiment: Inhibition of Equus caballus BuChE
Cholinesterase, sequence (P81908 whole entry): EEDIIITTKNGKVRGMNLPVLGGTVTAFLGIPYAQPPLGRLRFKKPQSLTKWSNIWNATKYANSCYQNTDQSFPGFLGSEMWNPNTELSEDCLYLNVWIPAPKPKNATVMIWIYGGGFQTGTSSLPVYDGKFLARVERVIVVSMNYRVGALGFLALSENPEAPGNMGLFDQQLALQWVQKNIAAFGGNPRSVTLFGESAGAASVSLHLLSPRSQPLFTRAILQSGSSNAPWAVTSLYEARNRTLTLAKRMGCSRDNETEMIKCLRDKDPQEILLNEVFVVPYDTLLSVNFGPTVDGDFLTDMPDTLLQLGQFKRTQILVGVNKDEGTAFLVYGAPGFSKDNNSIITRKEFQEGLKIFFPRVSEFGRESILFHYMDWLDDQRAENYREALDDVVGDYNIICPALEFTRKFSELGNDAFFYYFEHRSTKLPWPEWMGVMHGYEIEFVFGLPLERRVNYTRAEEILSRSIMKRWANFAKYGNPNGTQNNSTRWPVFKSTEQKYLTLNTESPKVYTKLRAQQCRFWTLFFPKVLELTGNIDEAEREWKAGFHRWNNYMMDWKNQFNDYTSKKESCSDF

Acetylcholinesterase (Electrophorus electricus, UniProt O42275), sequence (O42275 whole entry): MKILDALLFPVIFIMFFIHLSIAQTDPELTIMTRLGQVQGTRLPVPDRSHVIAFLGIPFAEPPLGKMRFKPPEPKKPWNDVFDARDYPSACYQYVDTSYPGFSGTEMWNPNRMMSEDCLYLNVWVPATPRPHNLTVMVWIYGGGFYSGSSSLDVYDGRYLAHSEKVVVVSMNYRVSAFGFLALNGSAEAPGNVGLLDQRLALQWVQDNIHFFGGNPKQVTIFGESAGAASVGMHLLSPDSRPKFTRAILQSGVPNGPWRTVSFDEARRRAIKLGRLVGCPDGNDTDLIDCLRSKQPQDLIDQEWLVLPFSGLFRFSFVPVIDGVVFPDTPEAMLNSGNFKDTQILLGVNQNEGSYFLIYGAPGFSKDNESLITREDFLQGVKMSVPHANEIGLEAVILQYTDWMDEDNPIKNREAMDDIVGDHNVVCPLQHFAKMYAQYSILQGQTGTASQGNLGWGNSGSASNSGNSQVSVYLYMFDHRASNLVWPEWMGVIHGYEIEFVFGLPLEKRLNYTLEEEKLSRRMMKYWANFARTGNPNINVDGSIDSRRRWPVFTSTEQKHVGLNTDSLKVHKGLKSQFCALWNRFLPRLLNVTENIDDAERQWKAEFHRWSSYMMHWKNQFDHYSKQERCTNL
Acetylcholinesterase (Homo sapiens, UniProt P22303), sequence (P22303 whole entry): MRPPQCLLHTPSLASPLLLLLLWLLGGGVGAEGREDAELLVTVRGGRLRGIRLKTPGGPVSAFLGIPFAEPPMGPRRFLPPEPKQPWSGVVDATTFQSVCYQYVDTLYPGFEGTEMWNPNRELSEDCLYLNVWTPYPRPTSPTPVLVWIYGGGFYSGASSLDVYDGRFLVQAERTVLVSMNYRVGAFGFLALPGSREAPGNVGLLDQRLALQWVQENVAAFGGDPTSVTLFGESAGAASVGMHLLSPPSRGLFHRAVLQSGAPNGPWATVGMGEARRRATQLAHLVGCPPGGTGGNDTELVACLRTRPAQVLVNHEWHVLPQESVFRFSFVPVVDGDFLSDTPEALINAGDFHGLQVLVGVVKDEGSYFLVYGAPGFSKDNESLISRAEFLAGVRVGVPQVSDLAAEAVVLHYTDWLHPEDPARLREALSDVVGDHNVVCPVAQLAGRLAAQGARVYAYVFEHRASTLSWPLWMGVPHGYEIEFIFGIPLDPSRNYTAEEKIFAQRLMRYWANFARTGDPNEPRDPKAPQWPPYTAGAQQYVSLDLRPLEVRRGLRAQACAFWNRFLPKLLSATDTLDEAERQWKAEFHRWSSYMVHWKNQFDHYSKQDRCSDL

| Compound | IC50 [1] | IC50 [2] | IC50 ([3]; read-out: IC50) | IC50 [3] |
| --- | --- | --- | --- | --- |
| CCOC(=O)c1cc2c(N)c3c(nc2nc1C)CCCC3 | 0.78 µM | 0.06 µM | 12 µM | – |
| Cc1nc2nc3c(c(N)c2cc1C(=O)O)CCCC3 | – | 15 µM | – | Not Active |
| Cc1nc2nc3c(c(N)c2cc1C(=O)[O-])CCCC3.[Na+] | – | 5.3 µM | – | Not Active |
| CCOC(=O)c1c(C)nc2nc3c(c(N)c2c1-c1ccccc1)CCCC3 | – | – | 5.03 µM | – |
